System: volunteers
Assay: Go/No-Go test, double blind crossover vs placebo
Format: in vivo, human
Settings: 200 mg; for Response Time Average: in ms (unit assumed)
Source text: In a double blind, randomized, crossover, and repeated measures manner, 13 volunteers (10 male, 3 female, average age 24±5 years, average body weight 72.91±19.30 kg, average height 169.96±11.84 cm, average BMI 24.80±3.71 kg/m^2) participated in this study. Participants limited ingestion of caffeine and other stimulants to normal use for 48-hours, fasted for 8-hours and reported to the lab and completed 4 different cognitive function tests to assess short-term attention and inhibitory control (Go-No Go Test), sustained attention (Vigilance Task Test), working memory (Sternberg Task Test) and cognitive flexibility (Berg-Washington Card Sorting Test). Once completed, the participants ingested either a placebo or 200 mg of paraxanthine (WGI, TX, USA) with 8 ounces of water. Participants repeated cognitive function tests 1, 2, 3, 4, 5, and 6 hours after ingestion of the supplement. After one-week participants repeated the experiment while consuming the other treatment.
Data were analyzed by a General Linear Model multivariate and univariate analyses with repeated measures using body weight as a covariate. Data are expressed as means±standard deviations for the placebo (PLA) and Paraxanthine (PrX). Greenhouse-Geisser univariate p-levels are listed for time (T), weight×time (W×T) and group×time (G×T) interactions effects. Pairwise comparison is indicated by the following superscripts: †=[…] difference from baseline value; *=[…] difference from baseline; a=[…] difference between groups; b=[…] difference between groups. Eta2 vaules of […] are considered small, […] medium, and >0.14 are considered large.
A test of sustained attention and response control (i.e., attention/inhibition). Lower response times represents better ability to pay attention and inhibitory control.

Structure (SMILES): Cn1c(=O)[nH]c2ncn(C)c2c1=O [paraxanthine, 1,7-dimethylxanthine]
- Round 2: Condition P Mean - Response Time (Millisecond) (Mean (SEM) over all hours): 356.55 ± 18.00 Millisecond
- Round 2: Condition R Mean - Response Time (Millisecond) (Mean (SEM) over all hours): 396.32 ± 20.27 Millisecond
- Response Time Average (Mean (SEM) over all hours): 374.94 ± 17.45
- Correct Response Mean Accuracy (%) (Mean (SEM) over all hours, listed as PX): 92.5 ± 1.3%
- response times to correctly respond compared to PLA (acute): faster response times
- Correct Response Mean Accuracy (%) (hour 0 (before ingestion)): 93.0 ± 2.9%
- Round 1: Condition P Mean - Response Time (Millisecond) (hour 0 (before ingestion)): 392.29 ± 44.29 Millisecond
- Round 1: Condition R Mean - Response Time (Millisecond) (hour 0 (before ingestion)): 344.30 ± 70.08 Millisecond
- Round 2: Condition P Mean - Response Time (Millisecond) (hour 0 (before ingestion)): 345.19 ± 37.11 Millisecond
- Round 2: Condition R Mean - Response Time (Millisecond) (hour 0 (before ingestion)): 401.46 ± 52.36 Millisecond
- Response Time Average (hour 0 (before ingestion)): 373.88 ± 43.64
- Correct Response Mean Accuracy (%) (hour 1 after ingestion): 93.7 ± 2.3%
- Round 1: Condition P Mean - Response Time (Millisecond) (hour 1 after ingestion): 387.51 ± 38.34 Millisecond
- Round 1: Condition R Mean - Response Time (Millisecond) (hour 1 after ingestion): 336.24 ± 73.85 Millisecond
- Round 2: Condition P Mean - Response Time (Millisecond) (hour 1 after ingestion): 346.39 ± 47.07 Millisecond
- Round 2: Condition R Mean - Response Time (Millisecond) (hour 1 after ingestion): 390.30 ± 41.57 Millisecond
- Response Time Average (hour 1 after ingestion): 366.68 ± 36.59
- Correct Response Mean Accuracy (%) (hour 2 after ingestion): 92.9 ± 3.6%
- Round 1: Condition P Mean - Response Time (Millisecond) (hour 2 after ingestion): 392.71 ± 38.09 Millisecond
- Round 1: Condition R Mean - Response Time (Millisecond) (hour 2 after ingestion): 347.17 ± 59.16 Millisecond
- Round 2: Condition P Mean - Response Time (Millisecond) (hour 2 after ingestion): 352.72 ± 46.18 Millisecond
- Round 2: Condition R Mean - Response Time (Millisecond) (hour 2 after ingestion): 389.31 ± 39.82 Millisecond
- Response Time Average (hour 2 after ingestion): 371.09 ± 30.25
- Correct Response Mean Accuracy (%) (hour 3 after ingestion): 91.7%
- Round 1: Condition P Mean - Response Time (Millisecond) (hour 3 after ingestion): 402.18 Millisecond
- Round 1: Condition R Mean - Response Time (Millisecond) (hour 3 after ingestion): 360.11 Millisecond
- Round 2: Condition P Mean - Response Time (Millisecond) (hour 3 after ingestion): 372.09 Millisecond
- Round 2: Condition R Mean - Response Time (Millisecond) (hour 3 after ingestion): 401.47 Millisecond
- Response Time Average (hour 3 after ingestion): 384.07
- Correct Response Mean Accuracy (%) (hour 4 after ingestion): 91.3%
- Round 1: Condition P Mean - Response Time (Millisecond) (hour 4 after ingestion): 387.65 Millisecond
- Round 1: Condition R Mean - Response Time (Millisecond) (hour 4 after ingestion): 350.94 Millisecond
- Round 2: Condition P Mean - Response Time (Millisecond) (hour 4 after ingestion): 362.02 Millisecond
- Round 2: Condition R Mean - Response Time (Millisecond) (hour 4 after ingestion): 399.45 Millisecond
- Response Time Average (hour 4 after ingestion): 375.03
- Correct Response Mean Accuracy (%) (hour 5 after ingestion): 93.1%
- Round 1: Condition P Mean - Response Time (Millisecond) (hour 5 after ingestion): 406.70 Millisecond
- Round 1: Condition R Mean - Response Time (Millisecond) (hour 5 after ingestion): 365.08 Millisecond
- Round 2: Condition P Mean - Response Time (Millisecond) (hour 5 after ingestion): 359.18 Millisecond
- Round 2: Condition R Mean - Response Time (Millisecond) (hour 5 after ingestion): 405.58 Millisecond
- Response Time Average (hour 5 after ingestion): 383.60
- Correct Response Mean Accuracy (%) (hour 6 after ingestion): 91.6 ± 4.4%
- Round 1: Condition P Mean - Response Time (Millisecond) (hour 6 after ingestion): 393.51 ± 53.02 Millisecond
- Round 1: Condition R Mean - Response Time (Millisecond) (hour 6 after ingestion): 352.14 ± 56.48 Millisecond
- Round 2: Condition P Mean - Response Time (Millisecond) (hour 6 after ingestion): 357.05 ± 99.19 Millisecond
- Round 2: Condition R Mean - Response Time (Millisecond) (hour 6 after ingestion): 387.41 ± 53.47 Millisecond
- Response Time Average (hour 6 after ingestion): 371.27 ± 53.76
- average response time (FIG. 10) (round 1+round 2): maintained mean response time over time
- Round 1 Condition R mean response time (FIG. 7) (round 1, vs PLA): better maintained mean response time over time compared to PLA
- Round 2 Condition P mean response time (FIG. 8) (round 2, vs PLA): better maintained mean response time over time compared to PLA
- Round 2 Condition R mean response time (FIG. 9) (round 2, vs PLA): non-significantly better maintained mean response time over time compared to PLA
- change of mean response times (vs baseline): −0.3%
- decrease of correct responses in comparison to baseline (vs baseline): 0.5%
- Mean Correct Responses higher compared to placebo (vs placebo): 1.1%
